In ChEMBL document CHEMBL3792280, “Design and synthesis of novel quinoxaline derivatives as potential candidates for treatment of multidrug-resistant and latent tuberculosis” (Bioorg Med Chem Lett, 2016) one finds MIC, IC50 and IC90 data, which are given here for 20 compounds.

In the experiment the test system is Mycobacterium tuberculosis. The experiment in a line: Antimicrobial activity against Mycobacterium tuberculosis H37Rv ATCC 27294 incubated for 7 days by BacTiter-Glo cell viability assay. It counts as functional, organism-based. The settings on record: for MIC: H37Rv ATCC 27294, 168 h; for IC50 / IC90: H37Rv ATCC 27294, BacTiter-Glo, 168 h.

Usually MIC stands for the lowest concentration found to suppress growth. Lower therefore signals a more susceptible organism. The term IC50 denotes the point on the concentration scale where inhibition reaches its midpoint. As usually defined, the IC90 is the point of the concentration-response curve where the effect stands at 90%.

The structures appear in SMILES notation. Values after ≈ are worked out from the molar mass of the structure shown.

As to `O=C(c1ccc(F)cc1)c1c(C(F)(F)F)[n+]([O-])c2cc(F)c(F)cc2[n+]1[O-]`, the MIC is 12.5 µM (≈ 4.85 µg/mL), the IC50 amounted to 5.2 µM and it took 8 µM to reach the 90% level (IC90).
As to `O=C(c1ccc(F)cc1)c1c(C(F)(F)F)[n+]([O-])c2ccc(Cl)cc2[n+]1[O-]`, the lowest concentration to inhibit growth (MIC) was 6.2 µM (≈ 2.4 µg/mL), half-maximal inhibition (IC50) was put at 3.7 µM and the 90% effect level (IC90) was put at 4.5 µM.
Taken in the same sequence, the figures for `O=C(c1ccc(F)cc1)c1c(C(F)(F)F)[n+]([O-])c2ccc(F)cc2[n+]1[O-]` were 6.2 µM (≈ 2.3 µg/mL), 3.1 µM and 4 µM.
`O=C(c1ccco1)c1c(C(F)(F)F)nc2cc(Cl)c(N3CCOCC3)cc2[n+]1[O-]` displayed an IC50 of more than 100 µM and an IC90 of more than 100 µM.
Take `O=C(c1ccc(F)cc1)c1c(C(F)(F)F)[n+]([O-])c2cc(Cl)c(Cl)cc2[n+]1[O-]`: the MIC came to 6.2 µM (≈ 2.61 µg/mL), inhibition was half-maximal at 3.6 µM (IC50) and it took 4.5 µM to reach the 90% level (IC90).
Taken in the same sequence, the figures for `CC(=O)c1c(C(F)(F)F)[n+]([O-])c2cc(F)c(N3CCC(N4CCOCC4)CC3)cc2[n+]1[O-]` were 12.5 µM (≈ 5.73 µg/mL), 4 µM and 7.2 µM.
The matching figures for `CC(=O)c1c(C(F)(F)F)[n+]([O-])c2cc(N3CCCCC3)c(N3CCCCC3)cc2[n+]1[O-]`: 6.2 µM (≈ 2.72 µg/mL), 2.2 µM and 4.6 µM.
`CCOC(=O)c1c(C(F)(F)F)nc2cc(Cl)c(N3CCOCC3)cc2[n+]1[O-]` showed an IC50 of more than 100 µM and a concentration for an effect of 90% (IC90) of more than 100 µM.
On to `CC(=O)c1c(C(F)(F)F)[n+]([O-])c2cc(F)c(N3CCC(O)CC3)cc2[n+]1[O-]`, for which 12.5 µM (≈ 4.87 µg/mL) was the least that counted as inhibitory (MIC), the IC50 was found to be 5.4 µM and the IC90 is 10.7 µM.
`Cc1c(C(=O)/C=C/c2ccc([N+](=O)[O-])s2)[n+]([O-])c2cc(Cl)c(Cl)cc2[n+]1[O-]` yielded an IC50 of more than 100 µM and an IC90 of more than 100 µM.
`Cc1c(C(=O)/C=C/c2ccc([N+](=O)[O-])s2)[n+]([O-])c2ccccc2[n+]1[O-]`: the IC50 was more than 100 µM and the IC90 was more than 100 µM.
`Cc1ccc2c(c1)[n+]([O-])c(C(=O)/C=C/c1ccc([N+](=O)[O-])o1)c(C)[n+]2[O-]` showed an MIC of 50 µM (≈ 17.8 µg/mL), an IC50 of 29.7 µM and an IC90 of 38.1 µM.
Consider `Cc1ccc2c(c1)[n+]([O-])c(C(=O)/C=C/c1ccc([N+](=O)[O-])s1)c(C)[n+]2[O-]`, for which the IC50 was more than 100 µM and the IC90 is more than 100 µM.
As to `Cc1c(C(=O)/C=C/c2ccc([N+](=O)[O-])s2)[n+]([O-])c2cc(Cl)ccc2[n+]1[O-]`, the MIC was determined as 25 µM (≈ 9.79 µg/mL), the IC50 is 7.3 µM and it took 13 µM to reach the 90% level (IC90).
Taken in the same sequence, the figures for `CC(C)C(=O)c1c(C(F)(F)F)nc2cc(N3CCOCC3)c(N3CCOCC3)cc2[n+]1[O-]` were 25 µM (≈ 11.4 µg/mL), 8.3 µM and 17.9 µM.
Taken in the same sequence, the figures for `Cc1ccc2c(c1)[n+]([O-])c(C(=O)/C=C/c1ccccc1)c(C)[n+]2[O-]` were 25 µM (≈ 8.01 µg/mL), 7.2 µM and 14.7 µM.
`Cc1c(C(=O)/C=C/c2ccc([N+](=O)[O-])o2)[n+]([O-])c2cc(Cl)ccc2[n+]1[O-]` came in with an MIC of 25 µM (≈ 9.39 µg/mL), an IC50 of 13.5 µM and an IC90 of 20.8 µM.
The matching figures for `Cc1c(C(=O)/C=C/c2ccc([N+](=O)[O-])o2)[n+]([O-])c2ccccc2[n+]1[O-]`: 25 µM (≈ 8.53 µg/mL), 17.3 µM and 24.6 µM.
Taken in the same sequence, the figures for `Cc1c(C(=O)/C=C/c2ccccc2)[n+]([O-])c2ccccc2[n+]1[O-]` were 12.5 µM (≈ 3.83 µg/mL), 5.8 µM and 11.5 µM.
Taken in the same sequence, the figures for `NCC[C@H](O)C(=O)N[C@@H]1C[C@H](N)[C@@H](O[C@H]2O[C@H](CN)[C@@H](O)[C@H](O)[C@H]2O)[C@H](O)[C@H]1O[C@H]1O[C@H](CO)[C@@H](O)[C@H](N)[C@H]1O` [AMIKACIN] were 0.2 µM (≈ 0.117 µg/mL), 0.102 µM and 0.141 µM.
